Like-named read-outs stand apart in the source and are kept apart here.

One test concerns tubulin. In kind it is biochemical, bovine. As to conditions: for MT stabilizing activity (%): tubulin assembly induced by test agent at 10 μM vs. 10 μM paclitaxel (100%), single determinations at 30° C. The procedure:
(§1) General. Tubulin without microtubule-associated proteins was prepared from fresh bovine brains[32] The normoisotopic and tritiated forms of paclitaxel and normoisotopic docetaxel were provided by the Drug Synthesis and Chemistry Branch, National Cancer Institute. (+)-Discodermolide was from Novartis Pharmaceutical Corporation. Ca^2+- and Mg^2+-free RPMI-1640 culture medium were from GIBCO/BRL-Life Technologies. Fetal bovine serum (FBS) was from Hyclone. Cell lines were obtained from American Type Culture Collection (Manassas, Va.).
Tubulin Polymerization[32] Tubulin assembly was followed in a Beckman-Coulter 7400 spectrophotometer, equipped with an electronic Peltier temperature controller, reading absorbance (turbidity) at 350 nm. Reaction mixtures (0.25 mL final volume) contained tubulin (final concentration 10 μM; 1 mg/mL), monosodium glutamate (0.8 M from a stock solution adjusted to pH 6.6 with HCl), DMSO (final volume 4% v/v), and differing concentrations of test agent where indicated. Reaction mixtures without test agent were cooled to 0° C. and added to cuvettes held at 0.25-0.5° C. in the spectrophotometer. Test agent in DMSO was then rapidly mixed in the reaction mixture. Each run contained one positive control (paclitaxel, 10 μM final concentration) and one negative control (DMSO only). Baselines were established at 0.25-2.5° C. and temperature was rapidly raised to 30° C. (in approximately 1 min) and held there for 20 min.

For test [1], the system named is paclitaxel binding site on tubulin. The test can be described thus: Paclitaxel binding site inhibition assay ([3H]paclitaxel displacement from microtubules). Details: species or system bovine. As to conditions: 4 μM test agent, 2 μM [3H]paclitaxel, microtubules from 2 μM tubulin and 20 μM dideoxyGTP. As to the method:
as §1
Paclitaxel binding site inhibition assay. A stock solution of [^3H]paclitaxel (26.8 μM, 16.2 Ci/mmol), obtained from the NCI, was prepared in 37% (v/v) DMSO. The test agents were prepared in 25% (v/v) DMSO-0.75 M monosodium glutamate (prepared from a 2M stock solution adjusted to pH 6.6 with HCl). The radiolabeled paclitaxel and test agents, as indicated in terms of final concentrations, were mixed in equal volumes and warmed to 37° C. A reaction mixture (50 μL) containing 0.75 M monosodium glutamate, 4.0 μM tubulin, and 40 μM ddGTP (a non-hydrolyzable analog of GTP) was prepared and incubated at 37° C. for 30 min to preform microtubules. An equivalent volume of drug mixture with [^3H]paclitaxel was added to preformed polymer and incubated for 30 min at 37° C. Bound [^3H]paclitaxel was separated from free drug by centrifugation of the reaction mixtures at 14000 rpm for 20 min at room temperature. Non-specific binding was determined by addition of a 12-fold excess of docetaxel. Radioactive counts from the supernatant (50 μL) were determined by scintillation spectrometry. Bound [^3H]paclitaxel was calculated from the following: total paclitaxel added to each reaction mixture minus the paclitaxel present in the supernatant (free drug). The % bound values were normalized to the control values with no inhibitor added.

For another test, the system named is MDA-MB231 (breast). The test can be described thus: Cell growth inhibition (MTS), MDA-MB231. In kind it is cell-based, human. As to conditions: Homo sapiens. The procedure:
(§2) Cell Growth Inhibition[34] Cells were plated (500-2000 cells/well depending on the cell line) in 96-well microplates, allowed to attach and grow for 48 h, then treated with vehicle (4% DMSO, a concentration that allowed doubling times of 24 h or less) or test agent (50, 10, 2, 0.4 and 0.08 μM for the new agents; 0.001, 0.005, 0.010, 0.020 and 0.100 μM for paclitaxel and discodermolide) for the given times. One plate consisted of cells from each line used for a time zero cell number determination. The other plates in a given determination contained eight wells of control cells, eight wells of medium and each agent concentration tested in quadruplicate. Cell numbers were obtained spectrophotometrically (absorbance at 490 nm minus that at 630 nm) in a Dynamax plate reader after treatment with 3-(4,5-dimethylthiazol-2-yl)-5-(3-carboxymethoxyphenyl)-2-(4-sulfophenyl)-2H-tetrazolium (MTS) using phenazine methanesulfonate as the electron acceptor. After initial screening with the above 5-fold dilutions, fifty percent growth inhibitory concentration (GI50) values were determined for each agent by repeating the screen using 2-fold dilutions (five concentrations) centered on the initial estimated GI50 concentration, again in quadruplicate.

The test system of a further test is PC3 (prostate). The test is described as follows: Cell growth inhibition (MTS), PC3. In kind it is cell-based. The note with it: Homo sapiens, read-out: GI50 PC3 (prostate). As to the method: as §2
For the next test, the system named is 2008 (ovarian). The test is described as follows: Cell growth inhibition (MTS), 2008. The note with it: Homo sapiens. In kind it is cell-based, human. As to the method: as §2
[2] abbreviates: MDA-MB-231, 72 h, read-out: GI50 MDA-MB231 (breast).
Where [3] appears, read: 72 h, read-out: GI50 2008 (ovarian).

What is called GI50 is the concentration giving 50% growth inhibition. As for `C=C/C=C\[C@H](C)[C@H](OC(N)=O)[C@@H](C)[C@H](O)CC/C=C\[C@H](C)[C@H](O)[C@@H](C)/C=C\CC[C@@H]1OC(=O)[C@H](C)[C@@H](O)[C@@H]1C` [Compound 40, Carbamic acid, (1S,2S,3R,6Z,8S,9S,10S,11Z)-3,9-dihydroxy-14-[(2S,3S,4S,5R)-4-hydroxy-3,5-dimethyl-6-oxotetrahydropyran-2-yl]-2,8,10-trimethyl-1-[(1S,2Z)-1-methylpenta-2,4-dienyl]tetradeca-6,11-dienyl ester], the “MT stabilizing activity (%)” value with tubulin is listed as 11%. Besides, the “Displacement of [3H]paclitaxel (%)” value in test [1] worked out at 21 ± 1%. Besides, the figures for the GI50 in the test on MDA-MB231 (breast) (setting [2]), in the test with PC3 (prostate) (72 h) and with 2008 (ovarian) (setting [3]) were 2100 ± 1800 nM, 7500 ± 2000 nM and 5200 ± 1000 nM, respectively.
For the molecule `C=C/C=C\[C@H](C)[C@H](OC(N)=O)[C@@H](C)[C@H](O)[C@@H](C)C/C(C)=C\[C@H](C)[C@@H](O)[C@@H](C)/C=C\[C@@H](O)C[C@@H]1OC(=O)[C@H](C)[C@@H](O)[C@H]1C` [discodermolide, (+)-discodermolide], the “microtubule assembly compared with paclitaxel (in words)” value in the test on tubulin (FIG. 6A, equivalent assembly at lower concentrations and temperatures) is on record as “superior to paclitaxel”. Moreover, the “properties of the induced polymer: speed of induction, resistance to cold-induced disassembly (in words)” value in the test with tubulin (FIGS. 6A, 6C, 6D, analogs at somewhat lower potencies than discodermolide) was “more resistant to cold-induced disassembly”. For the same molecule, in the test on tubulin, the “MT stabilizing activity (%)” value is more than 100%. Moreover, the “Displacement of [3H]paclitaxel (%)” value in test [1] stood at 64 ± 2%; in test [1] (N = 6, means ± SD), 64 ± 2%. Further, the 50% growth inhibitory concentration (GI50) in the test with MDA-MB231 (breast) (setting [2]) worked out at 16 ± 3 nM; in the test with MDA-MB231 (breast) (MDA-MB-231, 72 h, read-out: GI50 MDA-MB-231 (breast)) it was 16 ± 3 nM; in the test on PC3 (prostate) (72 h) it was 67 ± 4 nM; in the test on 2008 (ovarian) (setting [3]) it was 72 ± 5 nM; in the test with 2008 (ovarian) (72 h, read-out: GI50 2008 (ovary)) it was 72 ± 5 nM.
`CC(=O)O[C@H]1C(=O)[C@@]2(C)[C@H]([C@H](OC(=O)c3ccccc3)[C@]3(O)C[C@H](OC(=O)[C@H](O)[C@@H](NC(=O)c4ccccc4)c4ccccc4)C(C)=C1C3(C)C)[C@]1(OC(C)=O)CO[C@@H]1C[C@@H]2O` [paclitaxel, reference compound]: the “MT stabilizing activity (%)” value with tubulin worked out at 100%. The “Displacement of [3H]paclitaxel (%)” value in test [1] worked out at 37 ± 1%. The GI50 was determined as 2.4 ± 1.6 nM in the test with MDA-MB231 (breast) (MDA-MB-231, 72 h continuous exposure, mean ± SD, N = 4, read-out: GI50 MDA-MB231 (breast)); 15 ± 2 nM in the test on PC3 (prostate) (72 h continuous exposure, mean ± SD, N = 4); 9.2 ± 1.6 nM with 2008 (ovarian) (72 h continuous exposure, mean ± SD, N = 4, read-out: GI50 2008 (ovarian)).

The values above are taken from patent publication US20060270862A1, “Analogs of discodermolide and dictyostatin-1, intermediates therefor and methods of synthesis thereof” (priority 2002, published 2006).
